{
  "source": "patent US20130023485A1",
  "about": "“PARENTERAL FORMULATIONS OF PEPTIDES FOR THE TREATMENT OF SYSTEMATIC LUPUS ERYTHEMATOSUS” (Teva Pharmaceutical Industries, Ltd., priority 2003, published 2013)",
  "tested_on": "LN cells",
  "experiment": "IFN-γ secretion by cultured LN cells of immunized and treated mice (ELISA)",
  "format": "in vivo, BALB/c mice",
  "description": "A group of 20 mice were immunized with 50 μg/mouse of Compound 1 RS. The immunized mice were allocated to five treatment groups as follows: placebo, 25, 50, 100 and 200 μg/mouse of Compound 1 DP (subcutaneous administration). Ten days post immunization and treatment, LN was extracted and single cell suspension was prepared. The in-vitro secretion of IFN-γ and TGF-β by the cultured cells in response to activation with several concentrations of Compound 1 RS was then measured. [table] [table] Mice: 20 female BALB/c mice, supplied by Harlan animals breeding center, Rehovot. Age at immunization (week+days): 10 Average weight of mice included in the experiment: 19.01 gr. The immunization was performed by injecting 100 microliters of the immunization emulsion (50 microliters into each hind footpad). […] Mice were sacrificed by cervical dislocation. LN were extracted from the hind legs and were transferred to a sterile petri dish containing about 5 mL RPMI. The cells were extracted by gentle squeezing of the tissue against a 200 micrometer mesh stainless steel net. The cells were collected and centrifuged at 300 G for 10 minutes at RT. Single cell suspensions were prepared from pooled LN of each experimental group. […] Secretion of IFN-γ and TGF-β, as indication of cellular response, were determined by ELISA of culture media (48 hrs for IFN-γ and 72 hrs for TGF-β).",
  "data": [
    {"substance": "H-GYYWSWIRQPPGKGEEWIG-OH [Compound 1]", "values": [
      {"measurement": "Final cytokine (IFN-γ)", "setting": "treated 25 μg/M s.c., 5 million cells/well, activation Compound 1 3.125 μg/ml", "value": "BQL"},
      {"measurement": "Final cytokine (IFN-γ)", "setting": "treated 25 μg/M s.c., 5 million cells/well, activation Compound 1 6.25 μg/ml", "value": "BQL"},
      {"measurement": "Final cytokine (IFN-γ)", "setting": "treated 25 μg/M s.c., 5 million cells/well, activation Compound 1 12.5 μg/ml", "value": 41.9, "unit": "pg/mL"},
      {"measurement": "Final cytokine (IFN-γ)", "setting": "treated 25 μg/M s.c., 5 million cells/well, activation Compound 1 50 μg/ml", "value": 104.2, "unit": "pg/mL"},
      {"measurement": "Final cytokine (IFN-γ)", "setting": "treated 25 μg/M s.c., 5 million cells/well, activation Compound 1 100 μg/ml", "value": 185.2, "unit": "pg/mL"},
      {"measurement": "Final cytokine (IFN-γ)", "setting": "treated 25 μg/M s.c., 5 million cells/well, activation Compound 1 25 μ/ml", "value": 70.0, "unit": "pg/mL"},
      {"measurement": "Final cytokine (IFN-γ)", "setting": "treated 25 μg/M s.c., 5 million cells/well, activation Con A", "value": 2995.3, "unit": "pg/mL"},
      {"measurement": "Final cytokine (IFN-γ)", "setting": "treated 50 μg/M s.c., 2.5 million cells/well, activation Compound 1 3.125 μg/ml", "value": 54.1, "unit": "pg/mL"},
      {"measurement": "Final cytokine (IFN-γ)", "setting": "treated 50 μg/M s.c., 2.5 million cells/well, activation Compound 1 6.25 μg/ml", "value": 81.8, "unit": "pg/mL"},
      {"measurement": "Final cytokine (IFN-γ)", "setting": "treated 50 μg/M s.c., 2.5 million cells/well, activation Compound 1 12.5 μg/ml", "value": 123.1, "unit": "pg/mL"},
      {"measurement": "Final cytokine (IFN-γ)", "setting": "treated 50 μg/M s.c., 2.5 million cells/well, activation Compound 1 50 μg/ml", "value": 292.5, "unit": "pg/mL"},
      {"measurement": "Final cytokine (IFN-γ)", "setting": "treated 50 μg/M s.c., 2.5 million cells/well, activation Compound 1 100 μg/ml", "value": 531.8, "unit": "pg/mL"},
      {"measurement": "Final cytokine (IFN-γ)", "setting": "treated 50 μg/M s.c., 2.5 million cells/well, activation Compound 1 25 μ/ml", "value": 215.1, "unit": "pg/mL"},
      {"measurement": "Final cytokine (IFN-γ)", "setting": "treated 50 μg/M s.c., 2.5 million cells/well, activation Con A", "value": 356.2, "unit": "pg/mL"},
      {"measurement": "Final cytokine (IFN-γ)", "setting": "treated 50 μg/M s.c., 5 million cells/well, activation Compound 1 3.125 μg/ml", "value": 76.2, "unit": "pg/mL"},
      {"measurement": "Final cytokine (IFN-γ)", "setting": "treated 50 μg/M s.c., 5 million cells/well, activation Compound 1 6.25 μg/ml", "value": 109.2, "unit": "pg/mL"},
      {"measurement": "Final cytokine (IFN-γ)", "setting": "treated 50 μg/M s.c., 5 million cells/well, activation Compound 1 12.5 μg/ml", "value": 179.5, "unit": "pg/mL"},
      {"measurement": "Final cytokine (IFN-γ)", "setting": "treated 50 μg/M s.c., 5 million cells/well, activation Compound 1 50 μg/ml", "value": 373.4, "unit": "pg/mL"},
      {"measurement": "Final cytokine (IFN-γ)", "setting": "treated 50 μg/M s.c., 5 million cells/well, activation Compound 1 100 μg/ml", "value": 547.0, "unit": "pg/mL"},
      {"measurement": "Final cytokine (IFN-γ)", "setting": "treated 50 μg/M s.c., 5 million cells/well, activation Compound 1 25 μ/ml", "value": 277.9, "unit": "pg/mL"},
      {"measurement": "Final cytokine (IFN-γ)", "setting": "treated 50 μg/M s.c., 5 million cells/well, activation Con A", "value": 4837.0, "unit": "pg/mL"},
      {"measurement": "Final cytokine (IFN-γ)", "setting": "treated 100 μg/M s.c., 2.5 million cells/well, activation Compound 1 3.125 μg/ml", "value": 64.5, "unit": "pg/mL"},
      {"measurement": "Final cytokine (IFN-γ)", "setting": "treated 100 μg/M s.c., 2.5 million cells/well, activation Compound 1 6.25 μg/ml", "value": 116.1, "unit": "pg/mL"},
      {"measurement": "Final cytokine (IFN-γ)", "setting": "treated 100 μg/M s.c., 2.5 million cells/well, activation Compound 1 12.5 μg/ml", "value": 180.9, "unit": "pg/mL"},
      {"measurement": "Final cytokine (IFN-γ)", "setting": "treated 100 μg/M s.c., 2.5 million cells/well, activation Compound 1 50 μg/ml", "value": 518.3, "unit": "pg/mL"},
      {"measurement": "Final cytokine (IFN-γ)", "setting": "treated 100 μg/M s.c., 2.5 million cells/well, activation Compound 1 100 μg/ml", "value": 582.7, "unit": "pg/mL"},
      {"measurement": "Final cytokine (IFN-γ)", "setting": "treated 100 μg/M s.c., 2.5 million cells/well, activation Compound 1 25 μ/ml", "value": 262.8, "unit": "pg/mL"},
      {"measurement": "Final cytokine (IFN-γ)", "setting": "treated 100 μg/M s.c., 2.5 million cells/well, activation Con A", "value": 337.4, "unit": "pg/mL"},
      {"measurement": "Final cytokine (IFN-γ)", "setting": "treated 100 μg/M s.c., 5 million cells/well, activation Compound 1 3.125 μg/ml", "value": 90.8, "unit": "pg/mL"},
      {"measurement": "Final cytokine (IFN-γ)", "setting": "treated 100 μg/M s.c., 5 million cells/well, activation Compound 1 6.25 μg/ml", "value": 157.8, "unit": "pg/mL"},
      {"measurement": "Final cytokine (IFN-γ)", "setting": "treated 100 μg/M s.c., 5 million cells/well, activation Compound 1 12.5 μg/ml", "value": 257.1, "unit": "pg/mL"},
      {"measurement": "Final cytokine (IFN-γ)", "setting": "treated 100 μg/M s.c., 5 million cells/well, activation Compound 1 50 μg/ml", "value": 739.7, "unit": "pg/mL"},
      {"measurement": "Final cytokine (IFN-γ)", "setting": "treated 100 μg/M s.c., 5 million cells/well, activation Compound 1 100 μg/ml", "value": 995.5, "unit": "pg/mL"},
      {"measurement": "Final cytokine (IFN-γ)", "setting": "treated 100 μg/M s.c., 5 million cells/well, activation Compound 1 25 μ/ml", "value": 421.7, "unit": "pg/mL"},
      {"measurement": "Final cytokine (IFN-γ)", "setting": "treated 100 μg/M s.c., 5 million cells/well, activation Con A", "value": 10126.8, "unit": "pg/mL"},
      {"measurement": "Final cytokine (IFN-γ)", "setting": "treated 200 μg/M s.c., 2.5 million cells/well, activation Compound 1 3.125 μg/ml", "value": 103.9, "unit": "pg/mL"}
    ]}
  ]
}
